For 18 molecules, IC50 results are on record in patent US20210253572A1, “IMIDAZO[1,2-B]PYRIDAZINES AS TRK INHIBITORS” (BenevolentAl Bio Limited, priority 2018, published 2021).

What all share (format): biochemical
The target in one experiment is T1, TrkA (Homo sapiens, UniProt P04629).
T1 construct: purchased Invitrogen
Description: HTRF KinEASE kinase assay, recombinant Human TRK enzyme, TrkA (NTRK1). The conditions noted are these: NTRK1 4 nM, read-out: TrkA Enz. As for the experimental part: (§1) A suitable assay for determining the Trk inhibition activity of a compound is detailed herein below.
(§2) To determine the IC50 of small molecule compounds for the Human TRK receptors, HTRF® KinEASE™ kinase kits from Cisbio were used. Assays were carried out in low volume, black 384-well plates.
(§3) Recombinant Human TRK enzymes (Invitrogen) were incubated in the presence or absence of the compound (11-point dose response with FAC as 10 μM) for 30 minutes at 23° C. Kinase reaction was started by addition of ATP to a mixture containing the enzyme (NTRK1-4 nM, NTRK2-1 nM, NTRK3-10 nM) and substrate (1 μM). Kinase reaction was allowed to carry on for 10 to 45 minutes at 23° C. after which it was stopped by addition of the detection mix (supplied by vendor) containing EDTA, TK-Ab-labelled with Eu^3+-cryptate (1:200 dilutions) and Streptavidin-XL665 (250 nM). Assay plates were incubated in this detection mix for 60 minutes at 23° C. The resulting TR-FRET signal, calculated as the fluorescence ratio at 665/620 nm, was read on an Envision and was proportional to the level of phosphorylation of the peptide in the presence or absence of the compound. The uniformity of the plates were assured with Z′ value [1−{3*(SDHPE+SDZPE)/(ZPE−HPE)}]. The percent (%) effect i.e. Inhibition of compound was calculated in comparison to the signal in the positive (HPE) and negative control (ZPE) wells within each assay plate. The endpoint value % Inhibition for the Standard compound was evaluated in each experiment as a quality control measure. IC50 was determined by plotting compound inhibition at respective dose in Graphpad prism5 using four parameter logistic curve fit.
(Time-resolved FRET reads energy transfer from a long-lived donor to a nearby acceptor.)

The target in the next experiment is T2, TrkB (Homo sapiens, UniProt Q16620).
T2 construct: purchased Invitrogen
The experiment is described as follows: HTRF KinEASE kinase assay, recombinant Human TRK enzyme, TrkB (NTRK2). The conditions noted are these: NTRK2 1 nM, read-out: TrkB Enz. As for the experimental part:
as §1, §2, §3

A further experiment has as its target T3, TrkC (Homo sapiens, UniProt Q16288).
T3 construct: purchased Invitrogen
Description: HTRF KinEASE kinase assay, recombinant Human TRK enzyme, TrkC (NTRK3). The conditions noted are these: NTRK3 10 nM, read-out: TrkC Enz. The method, then:
as §1, §2, §3

Each structure is given as a SMILES string.

T3 sequence (Q16288 32-839): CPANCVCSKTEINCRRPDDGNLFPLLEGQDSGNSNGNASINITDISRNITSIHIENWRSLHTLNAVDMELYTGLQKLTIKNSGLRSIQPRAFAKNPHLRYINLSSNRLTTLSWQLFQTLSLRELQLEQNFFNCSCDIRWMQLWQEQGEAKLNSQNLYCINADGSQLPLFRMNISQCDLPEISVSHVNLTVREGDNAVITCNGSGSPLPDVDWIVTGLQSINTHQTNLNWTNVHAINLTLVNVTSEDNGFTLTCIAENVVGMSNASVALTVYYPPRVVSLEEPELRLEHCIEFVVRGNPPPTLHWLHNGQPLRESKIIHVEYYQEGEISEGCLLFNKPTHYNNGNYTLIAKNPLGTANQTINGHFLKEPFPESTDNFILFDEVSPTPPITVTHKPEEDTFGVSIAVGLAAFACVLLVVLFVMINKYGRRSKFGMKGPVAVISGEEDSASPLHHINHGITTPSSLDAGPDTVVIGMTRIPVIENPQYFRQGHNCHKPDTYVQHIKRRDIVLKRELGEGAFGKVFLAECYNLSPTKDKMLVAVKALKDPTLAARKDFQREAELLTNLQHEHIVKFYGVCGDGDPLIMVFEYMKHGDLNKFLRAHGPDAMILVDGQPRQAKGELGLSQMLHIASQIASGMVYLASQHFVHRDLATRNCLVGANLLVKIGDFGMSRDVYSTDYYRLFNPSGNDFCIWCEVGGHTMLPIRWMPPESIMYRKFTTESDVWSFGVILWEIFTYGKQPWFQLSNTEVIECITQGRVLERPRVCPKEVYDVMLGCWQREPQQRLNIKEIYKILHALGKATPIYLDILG
T1 sequence (P04629 33-796): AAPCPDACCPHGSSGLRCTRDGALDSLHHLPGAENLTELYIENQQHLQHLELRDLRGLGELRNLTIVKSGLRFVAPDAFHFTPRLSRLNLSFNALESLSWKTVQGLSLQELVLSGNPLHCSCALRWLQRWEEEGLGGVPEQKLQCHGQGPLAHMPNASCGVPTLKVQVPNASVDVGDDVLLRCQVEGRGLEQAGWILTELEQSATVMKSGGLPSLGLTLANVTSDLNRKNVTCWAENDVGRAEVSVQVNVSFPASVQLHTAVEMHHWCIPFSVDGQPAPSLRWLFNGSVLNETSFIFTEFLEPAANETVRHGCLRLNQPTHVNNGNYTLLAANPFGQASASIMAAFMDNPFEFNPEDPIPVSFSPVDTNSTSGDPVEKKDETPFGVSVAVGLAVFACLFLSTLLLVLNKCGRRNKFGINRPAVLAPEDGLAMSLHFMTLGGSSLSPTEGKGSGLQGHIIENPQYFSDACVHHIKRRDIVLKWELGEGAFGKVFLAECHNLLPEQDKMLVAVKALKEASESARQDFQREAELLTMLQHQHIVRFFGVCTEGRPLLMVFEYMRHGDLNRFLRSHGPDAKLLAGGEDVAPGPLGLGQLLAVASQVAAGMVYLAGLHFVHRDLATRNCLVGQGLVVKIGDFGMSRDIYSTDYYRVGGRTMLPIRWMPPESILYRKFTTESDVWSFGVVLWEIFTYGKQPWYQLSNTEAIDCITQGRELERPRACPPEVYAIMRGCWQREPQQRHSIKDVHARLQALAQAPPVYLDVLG
T2 sequence (Q16620 32-822): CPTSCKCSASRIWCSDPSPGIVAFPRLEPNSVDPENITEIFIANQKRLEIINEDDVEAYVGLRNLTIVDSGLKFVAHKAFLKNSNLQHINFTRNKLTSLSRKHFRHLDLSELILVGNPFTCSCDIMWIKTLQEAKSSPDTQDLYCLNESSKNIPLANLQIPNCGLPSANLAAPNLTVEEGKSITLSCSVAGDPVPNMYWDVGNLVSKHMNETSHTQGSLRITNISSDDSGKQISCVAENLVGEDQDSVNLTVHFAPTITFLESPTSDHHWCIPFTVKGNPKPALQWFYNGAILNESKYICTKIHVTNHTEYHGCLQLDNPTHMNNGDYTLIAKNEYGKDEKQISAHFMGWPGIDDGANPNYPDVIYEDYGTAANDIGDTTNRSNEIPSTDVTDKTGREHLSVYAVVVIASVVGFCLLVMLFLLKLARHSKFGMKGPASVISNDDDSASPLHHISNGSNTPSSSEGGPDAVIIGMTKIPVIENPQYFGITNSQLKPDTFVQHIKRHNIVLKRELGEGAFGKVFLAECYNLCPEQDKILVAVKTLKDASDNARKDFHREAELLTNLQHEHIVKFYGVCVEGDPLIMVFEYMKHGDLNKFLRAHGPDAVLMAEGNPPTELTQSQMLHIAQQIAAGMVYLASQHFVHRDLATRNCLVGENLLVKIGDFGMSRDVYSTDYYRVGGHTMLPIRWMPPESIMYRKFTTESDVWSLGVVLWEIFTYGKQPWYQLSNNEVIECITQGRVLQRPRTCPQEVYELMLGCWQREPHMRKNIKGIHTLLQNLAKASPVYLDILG

Regarding `CCCCC(=O)Oc1cccc(CN2CC[C@H](NC(=O)c3cnc4ccc(N5C[C@@H](F)C[C@@H]5c5cc(F)ccc5SC)nn34)C2)c1` [Example 9, 3-{[(3S)-3-{6-[(2R,4S)-4-fluoro-2-[5-fluoro-2-(methylsulfanyl)phenyl]pyrrolidin-1-yl]imidazo[1,2-b]pyridazine-3-amido}pyrrolidin-1-yl]methyl}phenyl Pentanoate], the IC50 on TrkA worked out at 3.81 nM; on TrkB, 8.76 nM; on TrkC it was 8.43 nM.
For `CSc1ccc(F)cc1[C@H]1C[C@H](F)CN1c1ccc2ncc(C(=O)NCc3ccc(F)c(O)c3)n2n1` [Example 14, 6-[(2R,4S)-4-fluoro-2-[5-fluoro-2-(methylsulfanyl)phenyl]pyrrolidin-1-yl]-N-[(4-fluoro-3-hydroxyphenyl)methyl]imidazo[1,2-b]pyridazine-3-carboxamide], the IC50 on TrkA is 0.95 nM; on TrkB, 0.57 nM; at TrkC, 1.47 nM.
As to `CO[C@H]1CN(Cc2ccc(F)c(O)c2)C[C@@H]1NC(=O)c1cnc2ccc(N3C[C@@H](F)C[C@@H]3c3cc(F)cc(SC)c3)nn12` [Example 23, 6-[(2R,4S)-4-fluoro-2-[3-fluoro-5-(methylsulfanyl)phenyl]pyrrolidin-1-yl]-N-[(3S,4S)-1-[(4-fluoro-3-hydroxyphenyl)methyl]-4-methoxypyrrolidin-3-yl]imidazo[1,2-b]pyridazine-3-carboxamide], the IC50 on TrkA is 2.37 nM; on TrkB, 10.3 nM; at TrkC, 6.85 nM.
For `COC(=O)c1cccc(CN2CC[C@H](NC(=O)c3cnc4ccc(N5C[C@@H](F)C[C@@H]5c5cc(F)cc(SC)c5)nn34)C2)c1` [Example 16, Methyl 3-{[(3S)-3-{6-[(2R,4S)-4-fluoro-2-[3-fluoro-5-(methylsulfanyl)phenyl]pyrrolidin-1-yl]imidazo[1,2-b]pyridazine-3-amido}pyrrolidin-1-yl]methyl}benzoate], in that order: 1.73 nM, 4.54 nM and 3.28 nM.
For `CCCCOC(=O)c1cccc(CN2CC[C@H](NC(=O)c3cnc4ccc(N5C[C@@H](F)C[C@@H]5c5cc(F)cc(SC)c5)nn34)C2)c1` [Example 30, Butyl 3-{[(3S)-3-{6-[(2R,4S)-4-fluoro-2-[3-fluoro-5-(methylsulfanyl)phenyl]pyrrolidin-1-yl]imidazo[1,2-b]pyridazine-3-amido}pyrrolidin-1-yl]methyl}benzoate], in that order: 22.4 nM, 14.9 nM and 22.4 nM.
The like results for `CSc1ccc(F)cc1[C@H]1C[C@H](F)CN1c1ccc2ncc(C(=O)NC3CN(Cc4cccc(O)c4)C3)n2n1` [Example 5, 6-[(2R,4S)-4-fluoro-2-[5-fluoro-2-(methylsulfanyl)phenyl]pyrrolidin-1-yl]-N-{1-[(3-hydroxyphenyl)methyl]azetidin-3-yl}imidazo[1,2-b]pyridazine-3-carboxamide] were, in that order, 1.9 nM, 1.19 nM and 2.11 nM.
`CSc1cc(F)cc([C@H]2C[C@H](F)CN2c2ccc3ncc(C(=O)NC4CCN(Cc5ccc(F)c(O)c5)CC4)n3n2)c1` [Example 21, 6-[(2R,4S)-4-fluoro-2-[3-fluoro-5-(methylsulfanyl)phenyl]pyrrolidin-1-yl]-N-{1-[(4-fluoro-3-hydroxyphenyl)methyl]piperidin-4-yl}imidazo[1,2-b]pyridazine-3-carboxamide]: the figures for the IC50 on TrkA, at TrkB and on TrkC were 1.48 nM, 1.5 nM and 1.97 nM, respectively.
The like results for `CSc1cc(F)cc([C@H]2C[C@H](F)CN2c2ccc3ncc(C(=O)N[C@H]4CCN(Cc5ccc(F)c(O)c5)C4)n3n2)c1` [Example 18, 6-[(2R,4S)-4-fluoro-2-[3-fluoro-5-(methylsulfanyl)phenyl]pyrrolidin-1-yl]-N-[(3S)-1-[(4-fluoro-3-hydroxyphenyl)methyl]pyrrolidin-3-yl]imidazo[1,2-b]pyridazine-3-carboxamide] were, in that order, 2.87 nM, 7.82 nM and 5.19 nM.
The like results for `CSc1ccc(F)cc1[C@H]1C[C@H](F)CN1c1ccc2ncc(C(=O)N[C@H]3CCN(Cc4cccc(O)c4)C3)n2n1` [Example 8, 6-[(2R,4S)-4-fluoro-2-[5-fluoro-2-(methylsulfanyl)phenyl]pyrrolidin-1-yl]-N-[(3S)-1-[(3-hydroxyphenyl)methyl]pyrrolidin-3-yl]imidazo[1,2-b]pyridazine-3-carboxamide] were, in that order, 0.79 nM, 1.51 nM and 1.64 nM.
For `CCOC(=O)c1cccc(CN2CC[C@H](NC(=O)c3cnc4ccc(N5C[C@@H](F)C[C@@H]5c5cc(F)ccc5SC)nn34)C2)c1` [Example 13, Ethyl 3-{[(3S)-3-{6-[(2R,4S)-4-fluoro-2-[5-fluoro-2-(methylsulfanyl)phenyl]pyrrolidin-1-yl]imidazo[1,2-b]pyridazine-3-amido}pyrrolidin-1-yl]methyl}benzoate], in that order: 1.7 nM, 2.53 nM and 2.01 nM.
Regarding `CSc1cc(F)cc([C@H]2C[C@H](F)CN2c2ccc3ncc(C(=O)NC4CN(Cc5cccc(O)c5)C4)n3n2)c1` [Example 20, 6-[(2R,4S)-4-fluoro-2-[3-fluoro-5-(methylsulfanyl)phenyl]pyrrolidin-1-yl]-N-{1-[(3-hydroxyphenyl)methyl]azetidin-3-yl}imidazo[1,2-b]pyridazine-3-carboxamide], the IC50 at TrkA was found to be 2.69 nM; on TrkB it was 3.76 nM; on TrkC it was 3.72 nM.
For `CSc1cc(F)cc([C@H]2C[C@H](F)CN2c2ccc3ncc(C(=O)N[C@H]4CCN(Cc5cccc(C(=O)O)c5)C4)n3n2)c1` [Example 29, 3-{[(3S)-3-{6-[(2R,4S)-4-fluoro-2-[3-fluoro-5-(methylsulfanyl)phenyl]pyrrolidin-1-yl]imidazo[1,2-b]pyridazine-3-amido}pyrrolidin-1-yl]methyl}benzoic Acid], in that order: 5.84 nM, 5.34 nM and 3.98 nM.
For `CSc1cc(F)cc([C@H]2CCCN2c2ccc3ncc(C(=O)N[C@H]4CCN(Cc5ccc(F)c(O)c5)C4)n3n2)c1` [Example 15, N-[(3S)-1-[(4-fluoro-3-hydroxyphenyl)methyl]pyrrolidin-3-yl]-6-[(2R)-2-[3-fluoro-5-(methylsulfanyl)phenyl]pyrrolidin-1-yl]imidazo[1,2-b]pyridazine-3-carboxamide], in that order: 4.86 nM, 9.15 nM and 8.3 nM.
Regarding `CSc1ccc(F)cc1[C@H]1C[C@H](F)CN1c1ccc2ncc(C(=O)NC3CCN(Cc4ccc(F)c(O)c4)CC3)n2n1` [Example 6, 6-[(2R,4S)-4-fluoro-2-[5-fluoro-2-(methylsulfanyl)phenyl]pyrrolidin-1-yl]-N-{1-[(4-fluoro-3-hydroxyphenyl)methyl]piperidin-4-yl}imidazo[1,2-b]pyridazine-3-carboxamide], the IC50 turned out to be 1.47 nM at TrkA, 0.81 nM at TrkB and 1.56 nM at TrkC.
In the case of `CSc1ccc(F)cc1[C@H]1C[C@H](F)CN1c1ccc2ncc(C(=O)NC3CCN(Cc4cccc(O)c4)CC3)n2n1` [Example 3, 6-[(2R,4S)-4-fluoro-2-[5-fluoro-2-(methylsulfanyl)phenyl]pyrrolidin-1-yl]-N-{1-[(3-hydroxyphenyl)methyl]piperidin-4-yl}imidazo[1,2-b]pyridazine-3-carboxamide], the IC50 is 0.92 nM on TrkA, 0.79 nM on TrkB and 1.19 nM on TrkC.
As to `CSc1cc(F)cc([C@H]2C[C@H](F)CN2c2ccn3ncc(C(=O)NC4CCN(Cc5cccc(O)c5)CC4)c3n2)c1` [Example 31, 5-[(2R,4S)-4-fluoro-2-[3-fluoro-5-(methylsulfanyl)phenyl]pyrrolidin-1-yl]-N-{1-[(3-hydroxyphenyl)methyl]piperidin-4-yl}pyrazolo[1,5-a]pyrimidine-3-carboxamide], the IC50 came to 1.38 nM at TrkA, 0.86 nM on TrkB and 1.38 nM on TrkC.
`CSc1ccc(F)cc1[C@H]1C[C@H](F)CN1c1ccc2ncc(C(=O)NC3CN(Cc4ccc(F)c(O)c4)C3)n2n1` [Example 4, 6-[(2R,4S)-4-fluoro-2-[5-fluoro-2-(methylsulfanyl)phenyl]pyrrolidin-1-yl]-N-{1-[(4-fluoro-3-hydroxyphenyl)methyl]azetidin-3-yl}imidazo[1,2-b]pyridazine-3-carboxamide]: the IC50 on TrkA stood at 1.75 nM; on TrkB it was 1.05 nM; at TrkC, 1.93 nM.
For `CSc1ccc(F)cc1[C@H]1C[C@H](F)CN1c1ccc2ncc(C(=O)NCc3cccc(O)c3)n2n1` [Example 7, 6-[(2R,4S)-4-fluoro-2-[5-fluoro-2-(methylsulfanyl)phenyl]pyrrolidin-1-yl]-N-[(3-hydroxyphenyl)methyl]imidazo[1,2-b]pyridazine-3-carboxamide], in that order: 0.9 nM, 0.49 nM and 1.25 nM.
